# Experiments:
# [1] = system: Chlorella sp., Chlorella kessleri, and Nostoc commune; assay: Algal efficacy on dry paint film (Modified ASTM 5589), pool Cs + Ck + Nc (Ch-No); type: cell-based
# Method: (§1) Each sample was tested in duplicate.
# (§2) In this synergy study, three pool of mixed algae were prepared as the test inoculum, Gloeocapsa sp. and Oscillatoria sp. a mix of cyanobacteria grown on BG-11 media; Chlorella sp., Chlorella kessleri, and Nostoc commune are unicellular chlorphytes that were mixed and grown on Bold media; Trentepohlia aurea, Tretepohlia odorata, and Calotrix parientina are filamentous algae that were mixed and grown on Bold media.
# (§3) The plates were incubated at room temp (25° C.-26° C.) with cyclic exposure to light (OTT-Lite model # OTL4012P, 40 Watt, 26 KLumen) and dark phases, for a period of four weeks. The total area covered was evaluated at the end of each week according to percent area covered in 5% increments.
# (§4) The SI is calculated based on F. C. Kull et.
# (§5) SI value of <1 in the formula indicates a synergism of the blended biocides exists.
# (§6) NE=no end point at the concentration tested that will meet the percent inhibition criteria set in each SI calculation.
# [2] = system: Gloeocapsa sp. and Oscillatoria sp.; assay: Algal efficacy on dry paint film (Modified ASTM 5589), pool Gs + Os (Os-Gl); type: cell-based
# Method: as §1, §2, §3, §4, §5, §6
# [3] = system: Trentepohlia aurea, Tretepohlia odorata, and Calotrix parientina; assay: Algal efficacy on dry paint film (Modified ASTM 5589), pool Cp + To + Ta (Cal-Tre); type: cell-based
# Method: as §1, §2, §3, §4, §5, §6
# Aa-Tv = assay: Fungal efficacy on dry paint film (Modified ASTM 5590), pool Aa-Tv; type: cell-based, Alternaria alternata + Trichoderma viride
# Method: as §1, §4, §5, §6
# [4] = system: Aspergillus niger mixed with Penicillium funiculosum; assay: Fungal efficacy on dry paint film (Modified ASTM 5590), pool An + Pf; type: cell-based; details: for % Inhibition: at the total conc for the same composition
# Method: as §1, §4, §5, §6
# Ap-Ch = assay: Fungal efficacy on dry paint film (Modified ASTM 5590), pool Ap-Ch; type: cell-based, Aureobasidium pullulans + Cladosporium herbarum
# Method: as §1, §4, §5, §6
# [5] = cited from earlier work
# [6] = at the total conc for the same composition
Compound,"% Inhibition [1, 6]",Total conc (minimum inhibitory concentration chosen for SI) ([1]; total actives in paint),"% Inhibition [2, 6]",Total conc (minimum inhibitory concentration chosen for SI) ([2]; total actives in paint),"% Inhibition [3, 6]",Total conc (minimum inhibitory concentration chosen for SI) ([3]; total actives in paint),% Inhibition (Aa-Tv; [6]),Total conc (minimum inhibitory concentration chosen for SI) (Aa-Tv; total actives in paint),% Inhibition [4],Total conc (minimum inhibitory concentration chosen for SI) ([4]; total actives in paint),% Inhibition (Ap-Ch; [6]),Total conc (minimum inhibitory concentration chosen for SI) (Ap-Ch; total actives in paint),solubility in water [5]
"c1ccc2[nH]c(-c3cscn3)nc2c1 [TBZ, thiabendazole]",80%,2475 pppm,80%,3300 pppm,80%,1650 pppm,0%,3300 pppm,70%,2475 pppm,100%,1650 pppm,
zinc glyphosate,,,,,,,,,70%,,,,
"O=C(O)CNCP(=O)(O)O [glyphosate, N-(phosphonomethyl)glycine]",,,,,,,,,,,,,relatively high solubility in water
